According to US4992449A, “7-(substituted)cycloalkylamino-1 -(substituted)-6-fluoro-1,4-dihydro-4-oxo-3-quinolinecarboxylic acids” (American Cyanamid Company, priority 1990, dated 1991):
Converted amounts (≈) assume the structure as drawn. Where two headings read alike, the source gives them in different places.

Tests used:
Experiment in all cases: In vitro antibacterial MIC, agar plate dilution
Assay type in all cases: cell-based
[1] = test system: Enterobacter cloacae K 84-10; settings: K8410, Mueller-Hinton agar, 10^4 CFU, 18 hours, 35° C.
Experimental: (§1) The in vitro antimicrobial spectrum of the compounds of this invention were determined by the agar plate dilution method with Mueller-Hinton agar and an inoculum of each test organism of approximately 10^4 colony forming units delivered by the Steers replicating device. The minimal inhibitory concentration (MIC) in mcg/ml is defined as the lowest concentration of test compound that inhibited visible growth after 18 hours incubation at 35° C. Results are given in Table I, with the test compounds identified by the number of their hereinafter described examples

[2] = test system: Enterobacter cloacae VGH 84-39; settings: VGH8439, Mueller-Hinton agar, 10^4 CFU, 18 hours, 35° C.
Experimental: as §1

[3] = test system: Escherichia coli CMC 84-50; settings: CMC8450, Mueller-Hinton agar, 10^4 CFU, 18 hours, 35° C.
Experimental: as §1

[4] = test system: Escherichia coli VGH 84-19; settings: VGH8419, Mueller-Hinton agar, 10^4 CFU, 18 hours, 35° C.
Experimental: as §1

[5] = test system: Excherichia coli LL 311; settings: 18 h, Table II, read-out: MIC
Experimental: as §1

[6] = test system: Klebsiella neumoniae CMC 84-31; settings: CMC8431, Mueller-Hinton agar, 10^4 CFU, 18 hours, 35° C.
Experimental: as §1

[7] = test system: Klebsiella neumoniae IO 83-5; settings: IO835, Mueller-Hinton agar, 10^4 CFU, 18 hours, 35° C.
Experimental: as §1

[8] = test system: Klebsiella neumoniae MOR 84-24; settings: MOR8424, Mueller-Hinton agar, 10^4 CFU, 18 hours, 35° C.
Experimental: as §1

[9] = test system: Moranella morganii CMC 84-38; settings: Mueller-Hinton agar, 10^4 CFU, 18 hours, 35° C.
Experimental: as §1

[10] = test system: Moranella morganii VGH 84-12; settings: Mueller-Hinton agar, 10^4 CFU, 18 hours, 35° C.
Experimental: as §1

[11] = test system: Morganella morganii CMC 84-37; settings: CMC8437, 18 h, Table II, read-out: MIC
Experimental: as §1

[12] = test system: Proteus rettgeri IO 83-21; settings: Providencia rettgeri, IO8321, Mueller-Hinton agar, 10^4 CFU, 18 hours, 35° C.
Experimental: as §1

[13] = test system: Providencia stuartii CMC 83-3; settings: CMC833, Mueller-Hinton agar, 10^4 CFU, 18 hours, 35° C.
Experimental: as §1

[14] = test system: Pseudomonas aeruginosa CMC 83-20; settings: CMC8320, Mueller-Hinton agar, 10^4 CFU, 18 hours, 35° C.
Experimental: as §1

[15] = test system: Pseudomonas aeruginosa VGH 84-16; settings: VGH8416, Mueller-Hinton agar, 10^4 CFU, 18 hours, 35° C.
Experimental: as §1

[16] = test system: Pseudomonas aeruginosa VGH 84-4; settings: Pseudomonas aeruginosa, VGH844, 18 h, Table II, read-out: MIC
Experimental: as §1

[17] = test system: Serratia marcescens CMC 83-74; settings: CMC8374, Mueller-Hinton agar, 10^4 CFU, 18 hours, 35° C.
Experimental: as §1

[18] = test system: Serratia marcescens IO 83-63; settings: IO8363, Mueller-Hinton agar, 10^4 CFU, 18 hours, 35° C.
Experimental: as §1

[19] = test system: Serratia marcescens K 84-18; settings: K8418, 18 h, Table II, read-out: MIC
Experimental: as §1

[20] = test system: Serratia marcescens MOR 84-41; settings: MOR8441, Mueller-Hinton agar, 10^4 CFU, 18 hours, 35° C.
Experimental: as §1

[21] = test system: Staphylococcus aureus ATCC 29213; settings: Staphylococcus aureus, ATCC29213, 18 h, read-out: MIC
Experimental: as §1

[22] = test system: Staphylococcus aureus K 82-26; settings: K8226, Mueller-Hinton agar, 10^4 CFU, 18 hours, 35° C.
Experimental: as §1

[23] = test system: Staphylococcus aureus Smith 1; settings: Staphylococcus aureus, SMITH1, 18 h, Table II, read-out: MIC
Experimental: as §1

[24] = test system: Staphylococcus aureus VGH 84-45; settings: VGH8445, 18 h, Table II, read-out: MIC
Experimental: as §1

[25] = test system: Staphylococcus aureus VGH 84-47; settings: VGH8447, Mueller-Hinton agar, 10^4 CFU, 18 hours, 35° C.
Experimental: as §1

[26] = test system: Staphylococcus faecalis CMC 83-120; settings: CMC83120, Mueller-Hinton agar, 10^4 CFU, 18 hours, 35° C.
Experimental: as §1

[27] = test system: Staphylococcus faecalis VGH 84-69; settings: VGH8469, Mueller-Hinton agar, 10^4 CFU, 18 hours, 35° C.
Experimental: as §1

[28] = test system: Streptococcus faecalis UCI 85-19; settings: Enterococcus faecalis, UCI8519, 18 h, Table II, read-out: MIC
Experimental: as §1

[29] = test system: Streptococcus faecalis UCI 85-30; settings: Enterococcus faecalis, UCI8530, Mueller-Hinton agar, 10^4 CFU, 18 hours, 35° C.
Experimental: as §1

[30] = test system: Streptococcus faecalis VGH 84-65; settings: Enterococcus faecalis, VGH8465, 18 h, Table II, read-out: MIC
Experimental: as §1

[31] = Table I, Mueller-Hinton agar, 10^4 CFU, 18 hours, 35° C.

SMILES	MIC [1]	MIC [2]	MIC [3]	MIC [4]	MIC [5]	MIC [6]	MIC [7]	MIC [8]	MIC [9]	MIC [10]	MIC [11]	MIC [12]	MIC [13]	MIC [14]	MIC [15]	MIC [16]	MIC [17]	MIC [18]	MIC [19]	MIC [20]	also measured
N[C@H]1CCC[C@H]1Nc1cc2c(cc1F)c(=O)c(C(=O)O)cn2-c1ccc(F)cc1 (relative stereo) [Example 3]	2 µg/mL (≈ 5.01 µM)	2 µg/mL (≈ 5.01 µM)	4 µg/mL (≈ 10 µM)	2 µg/mL (≈ 5.01 µM)	1 µg/mL (≈ 2.5 µM)	4 µg/mL (≈ 10 µM)	4 µg/mL (≈ 10 µM)	4 µg/mL (≈ 10 µM)	8 µg/mL (≈ 20 µM)	4 µg/mL (≈ 10 µM)	4 µg/mL (≈ 10 µM)	4 µg/mL (≈ 10 µM)	> 16 µg/mL	> 16 µg/mL	> 16 µg/mL	16 µg/mL (≈ 40.1 µM)	> 16 µg/mL	4 µg/mL (≈ 10 µM)	2 µg/mL (≈ 5.01 µM)	4 µg/mL (≈ 10 µM)	MIC [21, 31]: 4 µg/mL (≈ 10 µM); MIC ([21]; Table II): 4 µg/mL (≈ 10 µM); MIC [22]: 4 µg/mL (≈ 10 µM); MIC [23]: 2 µg/mL (≈ 5.01 µM); MIC [24]: 4 µg/mL (≈ 10 µM); MIC [25]: 4 µg/mL (≈ 10 µM); MIC [26]: > 16 µg/mL; MIC [27]: > 16 µg/mL; MIC [28]: 64 µg/mL (≈ 160 µM); MIC [29]: > 16 µg/mL; MIC [30]: 64 µg/mL (≈ 160 µM)
CCn1cc(C(=O)O)c(=O)c2cc(F)c(N[C@@H]3CCC[C@@H]3N)cc21 (relative stereo) [Example 4, Cis-7-[(2-Aminocyclopentyl)amino]-1-ethyl-6-fluoro-1,4-dihydro-4-oxo-3-quinolinecarboxylic acid]	1 µg/mL (≈ 3 µM)	1 µg/mL (≈ 3 µM)	2 µg/mL (≈ 6 µM)	1 µg/mL (≈ 3 µM)	2 µg/mL (≈ 6 µM)	2 µg/mL (≈ 6 µM)	2 µg/mL (≈ 6 µM)	2 µg/mL (≈ 6 µM)	1 µg/mL (≈ 3 µM)	2 µg/mL (≈ 6 µM)	4 µg/mL (≈ 12 µM)	2 µg/mL (≈ 6 µM)	> 16 µg/mL	> 16 µg/mL	> 16 µg/mL	64 µg/mL (≈ 192 µM)	> 16 µg/mL	1 µg/mL (≈ 3 µM)	4 µg/mL (≈ 12 µM)	1 µg/mL (≈ 3 µM)	MIC [21, 31]: 4 µg/mL (≈ 12 µM); MIC ([21]; Table II): 128 µg/mL (≈ 384 µM); MIC [22]: 1 µg/mL (≈ 3 µM); MIC [23]: 8 µg/mL (≈ 24 µM); MIC [24]: 64 µg/mL (≈ 192 µM); MIC [25]: 2 µg/mL (≈ 6 µM); MIC [26]: 4 µg/mL (≈ 12 µM); MIC [27]: 4 µg/mL (≈ 12 µM); MIC [28]: 32 µg/mL (≈ 96 µM); MIC [29]: 4 µg/mL (≈ 12 µM); MIC [30]: 32 µg/mL (≈ 96 µM)
